Experimental data reported in publication PMC3615411 (Cancer research, 2008).

Molecular target: E2F4 (Mus musculus, UniProt Q8R0K9)
Test: EMSA of E2F4 DNA binding with compound added to cell extract
Format: biochemical
Conditions: NIH-3T3 protein extract; 20 µM screen; STAT3 EMSA as negative control

Sequence of E2F4 (Q8R0K9 2-410): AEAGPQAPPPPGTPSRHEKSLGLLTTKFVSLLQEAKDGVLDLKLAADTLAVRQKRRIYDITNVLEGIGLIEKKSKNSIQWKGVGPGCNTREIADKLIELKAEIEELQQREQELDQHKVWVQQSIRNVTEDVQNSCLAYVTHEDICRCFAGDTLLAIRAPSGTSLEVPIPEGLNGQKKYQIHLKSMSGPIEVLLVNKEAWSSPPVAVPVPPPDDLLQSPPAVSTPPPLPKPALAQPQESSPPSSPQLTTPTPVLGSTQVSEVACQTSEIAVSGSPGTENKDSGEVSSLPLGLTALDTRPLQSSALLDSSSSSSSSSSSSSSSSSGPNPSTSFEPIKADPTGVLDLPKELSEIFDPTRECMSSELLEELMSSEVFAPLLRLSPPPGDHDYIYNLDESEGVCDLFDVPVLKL

`CCOc1ccc(C(Nc2ccccn2)c2ccc3ccc(C)nc3c2O)cc1C` (stereo not shown) [HLM006474] was tested, and the “inhibition at 20 μM” value was “Incubation of these compounds with NIH-3T3 protein extracts identified ten compounds with potential E2F4-inhibitory activity”.
